Laboratory results as given in patent US20230077723A1, “N-SUBSTITUTED-3,4-(FUSED 5-RING)-5-PHENYL-PYRROLIDINE-2-ONE COMPOUNDS AS INHIBITORS OF ISOQC AND/OR QC ENZYME” (Scenic Immunology B.V., priority 2019, published 2023).

These molecules were tested on pyroglutamylated CD47 (pE-CD47) in KBM7 cells (assay: Assay 6 - cell-based potency assay (pE-CD47 CC2C6 staining vs total CD47)). Details: 72 hours, CC2C6 signal, read-out: Cell Pot. Assay No. 6.
Set-up: species or system human
Procedure: Cells were spun for 4 minutes at 1500 rpm and washed once with PBS/0.5% BSA. Cells were spun down again and the supernatant was removed and incubated in 100 uL antibody staining solution (PBS/0.5% BSA/0.1 μg/mL DAPI (4′,6-diamidino-2-phenylindole, ThermoFisher Scientific) and a mixture of 1:500 FITC-conjugated anti-human CD47 clone 2D3, which recognizes total CD47 irrespective of its pyroglutamylation state, and 1:500 Alexa647-conjugated anti-human CD47 clone CC2C6, which specifically detects pyroglutamylated CD47) for 2 hours at 4° C. Next, the cells were spun down and washed twice with 2×150 μL PBS/0.5% BSA to remove unbound antibody. Cells were again spun down and taken up in 300 μL FACS buffer before analysis on a Celesta FACS machine (BD Biosciences).
KBM7 cells (Kotecki et al., 1999) were infected with lentivirus produced by transfecting pSCNC-LentiCRISPR-QPCTL or pSCNC-LentiCRISPR-CD47 into HEK-293T cells according to standard protocols. After 24 hours incubation, cells were selected with puromycin (Invivogen, 1 μg/mL) for 48 hours. Cells were stained for total CD47 and pE-CD47 and QPCTL k.o. cells were sorted out as negative for pE-CD47, and CD47 k.o. cells as negative for total CD47, using a FACSAria III and FACS Diva software (BD Biosciences).
In order to test compounds for their effect on pyroglutamylation in live cells, 25000 KBM7 cells per well were seeded in a 96-well U-bottom plate in 150 μl IMDM/10% FCS/1% Pen/Strep medium and a 10-point 2-fold dilution range of test compounds. After 72 hours incubation at 37° C., 5% CO2, cells were stained for total CD47 and pE-CD47 and analyzed on a BD Celesta using FACS Diva software (BD Biosciences). Cells gated for DAPI negativity were recorded and the median fluorescence intensity (MFI) of each sample was transformed to linearly scale between the MFI's of wildtype and CD47 knockout cells (in case of the 2D3 antibody) and the wildtype and QPCTL knockout cells (in case of the CC2C6 antibody). IC50's were calculated by 3 parameter logistic regression of the CC2C6 signal vs. compound concentration, where the top of the sigmoidal curve was fixed at 1, using R and the drc package (http://www.r-project.org, https://cran.r-project.org/web/packages/drc/index.html).

IC50	Structure (SMILES)
1 to 5 µM	Cc1c2c(nn1C)C(=O)N(c1ccc3[nH]cnc3c1)C2c1ccc(N2CCC(F)(F)C2)c(F)c1F (stereo not shown) [FRPPO-066]
< 1 µM	Cc1[nH]nc2c1C(c1ccc(N3CCC(F)(F)C3)cc1F)N(c1ccc3[nH]cnc3c1)C2=O (stereo not shown) [FRPPO-126C]

Same assay, conditions: Homo sapiens, KBM-7, 72 h, CC2C6 signal, Table 2, read-out: Cell Potency Assay 6 (Comparison Data)

IC50	Structure (SMILES)
< 1 µM	CCCOc1ccc(C2c3c(nn(C)c3C)C(=O)N2c2ccc3[nH]cnc3c2)cc1 (racemic) [FRPPO-001]
> 6.25 µM	CCCOc1ccc(C2c3c(nn(C)c3C)C(=O)N2c2ccc3nnn(C)c3c2)cc1 (racemic) [REF-001, reference compound]
> 6.25 µM	CCCOc1ccc(C2c3c(nn(C)c3C)C(=O)N2c2cc(C)c3nnn(C)c3c2)cc1 (racemic) [REF-002, reference compound]
≥ 50 µM	CCCOc1ccc(C2c3c(nn(C)c3C)C(=O)N2c2ccc3nnc(C)n3c2)cc1 (racemic) [REF-003, reference compound]
≥ 50 µM	CCCOc1ccc(C2c3c(nn(C)c3C)C(=O)N2c2cc(C)c3nnc(C)n3c2)cc1 (racemic) [REF-004, reference compound]
≥ 50 µM	CCCOc1ccc(C2c3c(nn(C)c3C)C(=O)N2c2ccc3nncn3n2)cc1 (racemic) [REF-005, reference compound]
> 6.25 µM	CCCOc1ccc(C2c3c(nn(C)c3C)C(=O)N2c2cc(C)c3nnc(C)n3n2)cc1 (racemic) [REF-006, reference compound]
> 6.25 µM	CCCOc1ccc(C2c3c(nn(C)c3C)C(=O)N2c2ccc3nnn(C)c3n2)cc1 (racemic) [REF-007, reference compound]
≥ 50 µM	CCCOc1ccc(C2c3c(nn(C)c3C)C(=O)N2c2cc(NC)c3nnc(C)n3n2)cc1 (racemic) [REF-008, reference compound]

Same assay, conditions: Homo sapiens, KBM-7, 72 h, CC2C6 signal, read-out: Cell Pot. Assay No. 6

IC50	Structure (SMILES)
< 1 µM	CCCOc1ccc(C2c3c(nn(C)c3C)C(=O)N2c2ccc3[nH]cnc3c2)cc1 (racemic) [FRPPO-001]
1 to 5 µM	CCCOc1ccc(C2c3c(C)nn(C)c3C(=O)N2c2ccc3[nH]cnc3c2)cc1 (stereo not shown) [FRPPO-002]
5 to 50 µM	Cc1c2c(nn1C)C(c1ccc(N3CCC(F)(F)C3)cc1F)N(c1ccc3[nH]cnc3c1)C2=O (stereo not shown) [FRPPO-046]
5 to 50 µM	Cc1c2c(nn1C)C(c1ccc(Br)cc1F)N(c1ccc3[nH]cnc3c1)C2=O (stereo not shown) [FRPPO-047]
< 1 µM	Cc1nn(C)c2c1C(=O)N(c1ccc3[nH]cnc3c1)C2c1ccc(N2CCC(F)(F)C2)cc1F (stereo not shown) [FRPPO-049]
1 to 5 µM	Cn1nc(C(F)(F)F)c2c1C(c1ccc(N3CCC(F)(F)C3)cc1F)N(c1ccc3[nH]cnc3c1)C2=O (stereo not shown) [FRPPO-050]
1 to 5 µM	Cn1ncc2c1C(c1ccc(Cl)cc1F)N(c1ccc3[nH]cnc3c1)C2=O (stereo not shown) [FRPPO-051]
5 to 50 µM	Cc1nn(C)c2c1C(=O)N(c1ccc3[nH]cnc3c1)C2c1ccc(Cl)cc1F (stereo not shown) [FRPPO-052]
5 to 50 µM	Cn1nc(C(F)(F)F)c2c1C(c1ccc(Cl)cc1F)N(c1ccc3[nH]cnc3c1)C2=O (stereo not shown) [FRPPO-053]
1 to 5 µM	O=C1c2scnc2C(c2ccc(N3CCC(F)(F)C3)cc2F)N1c1ccc2[nH]cnc2c1 (stereo not shown) [FRPPO-054]
5 to 50 µM	O=C1c2scnc2C(c2ccc(Cl)cc2F)N1c1ccc2[nH]cnc2c1 (stereo not shown) [FRPPO-057]
5 to 50 µM	Cc1nc2c(s1)C(=O)N(c1ccc3[nH]cnc3c1)C2c1ccc(Cl)cc1F (stereo not shown) [FRPPO-058]
1 to 5 µM	Cc1nc2c(s1)C(c1ccc(N3CCC(F)(F)C3)cc1F)N(c1ccc3[nH]cnc3c1)C2=O (stereo not shown) [FRPPO-061]
1 to 5 µM	O=C1c2ncsc2C(c2ccc(Cl)cc2F)N1c1ccc2[nH]cnc2c1 (stereo not shown) [FRPPO-063]
5 to 50 µM	Cc1nc2c(s1)C(c1ccc(Cl)cc1F)N(c1ccc3[nH]cnc3c1)C2=O (stereo not shown) [FRPPO-064]
1 to 5 µM	Cc1c2c(nn1C)C(=O)N(c1ccc3[nH]cnc3c1)C2c1ccc(C#N)cc1F (stereo not shown) [FRPPO-069]
1 to 5 µM	Cc1c2c(nn1C)C(=O)N(c1ccc3[nH]cnc3c1)C2c1ccc(N2CCC2)cc1F (stereo not shown) [FRPPO-070]
< 1 µM	Cc1c2c(nn1C)C(=O)N(c1ccc3[nH]cnc3c1)C2c1ccc(N2CC(F)C2)cc1F (stereo not shown) [FRPPO-072]
1 to 5 µM	Cc1c2c(nn1C)C(=O)N(c1ccc3[nH]cnc3c1)C2c1ccc(N2CCC(F)C2)cc1F (stereo not shown) [FRPPO-073]
< 1 µM	Cc1c2c(nn1C)C(=O)N(c1ccc3[nH]cnc3c1)C2c1ccc(N2CCOCC2)cc1F (stereo not shown) [FRPPO-078]
1 to 5 µM	Cc1c2c(nn1C)C(=O)N(c1ccc3[nH]cnc3c1)C2c1ccc(N2CCC23COC3)cc1F (stereo not shown) [FRPPO-079]

IC50	Structure (SMILES)
1 to 5 µM	Cc1c2c(nn1C)C(=O)N(c1ccc3[nH]cnc3c1)C2c1ccc(N2CC3CC2CO3)cc1F (stereo not shown) [FRPPO-081]
5 to 50 µM	Cc1c2c(nn1C)C(=O)N(c1ccc3[nH]cnc3c1)C2c1ccc(N2CCNC(C)C2)cc1F (stereo not shown) [FRPPO-082]
1 to 5 µM	Cc1c2c(nn1C)C(=O)N(c1ccc3[nH]cnc3c1)C2c1ccc(N2CCN(C)CC2)cc1F (stereo not shown) [FRPPO-083]
5 to 50 µM	Cc1c2c(nn1C)C(=O)N(c1ccc3[nH]cnc3c1)C2c1ccc(N2CCC(O)CC2)cc1F (stereo not shown) [FRPPO-085]
1 to 5 µM	Cc1c2c(nn1C)C(=O)N(c1ccc3[nH]cnc3c1)C2c1ccc(N2CCCC(O)C2)cc1F (stereo not shown) [FRPPO-086]
1 to 5 µM	Cc1c2c(nn1C)C(=O)N(c1ccc3[nH]cnc3c1)C2c1ccc(N2CC(O)C(F)C2)cc1F (stereo not shown) [FRPPO-089]
< 1 µM	Cc1c2c(nn1C)C(=O)N(c1ccc3[nH]cnc3c1)C2c1ccc(NCCC(F)(F)F)cc1F (stereo not shown) [FRPPO-092]
1 to 5 µM	Cc1c2c(nn1C)C(=O)N(c1ccc3[nH]cnc3c1)C2c1ccc(N2CC3(CCOC3)C2)cc1F (stereo not shown) [FRPPO-095]
< 1 µM	Cc1c2c(nn1C)C(=O)N(c1ccc3[nH]cnc3c1)C2c1ccc(N2CC3CCC(C2)O3)cc1F (stereo not shown) [FRPPO-096]
< 1 µM	Cc1c2c(nn1C)C(=O)N(c1ccc3[nH]cnc3c1)C2c1ccc(N2CCC3(COC3)C2)cc1F (stereo not shown) [FRPPO-097]
5 to 50 µM	Cc1c2c(nn1C)C(=O)N(c1ccc3[nH]cnc3c1)C2c1ccc(N2CC(C)NC(C)C2)cc1F (stereo not shown) [FRPPO-100]
< 1 µM	Cc1c2c(nn1C)C(=O)N(c1ccc3[nH]cnc3c1)C2c1ccc(N2CCC3(CCOC3)C2)cc1F (stereo not shown) [FRPPO-104]
5 to 50 µM	Cc1c2c(nn1C)C(=O)N(c1ccc3[nH]cnc3c1)C2c1ccc(N2CCS(=O)(=O)CC2)cc1F (stereo not shown) [FRPPO-105]
1 to 5 µM	COC(=O)N1CCN(c2ccc(C3c4c(nn(C)c4C)C(=O)N3c3ccc4[nH]cnc4c3)c(F)c2)CC1 (stereo not shown) [FRPPO-107]
< 1 µM	Cc1c2c(nn1C)C(=O)N(c1ccc3[nH]cnc3c1)C2c1ccc(N2CCOC(C(F)(F)F)C2)cc1F (stereo not shown) [FRPPO-109]
1 to 5 µM	Cc1c2c(nn1C)C(=O)N(c1ccc3[nH]cnc3c1)C2c1ccc(N2CCN(S(C)(=O)=O)CC2)cc1F (stereo not shown) [FRPPO-111]
< 1 µM	Cc1c2c(nn1C)C(=O)N(c1ccc3[nH]cnc3c1)C2c1ccc(N2CCOC[C@@H]2C)cc1F (stereo partly shown) [FRPPO-113A]
< 1 µM	Cc1c2c(nn1C)C(=O)N(c1ccc3[nH]cnc3c1)C2c1ccc(N2CCOC[C@H]2C)cc1F (stereo partly shown) [FRPPO-113B]
< 1 µM	Cc1c2c(nn1C)C(=O)N(c1ccc3[nH]cnc3c1)C2c1ccc(N2CCO[C@@H](C)C2)cc1F (stereo partly shown) [FRPPO-114A]
< 1 µM	Cc1c2c(nn1C)C(=O)N(c1ccc3[nH]cnc3c1)C2c1ccc(N2CCC[C@H]2C)cc1F (stereo partly shown) [FRPPO-115A]
1 to 5 µM	Cc1[nH]nc2c1C(c1ccc(N3CCC(F)(F)C3)cc1F)N(c1ccc3[nH]cnc3c1)C2=O (stereo not shown) [FRPPO-126B]

Structure (SMILES)	IC50
Cc1c2c(nn1C)C(=O)N(c1ccc3[nH]cnc3c1)C2c1ccc(N2CC3CC(C2)O3)cc1F (stereo not shown) [FRPPO-077]	1 to 5 µM
Cc1c2c(nn1C)C(=O)N(c1ccc3[nH]cnc3c1)C2c1ccc(N2C3CCC2COC3)cc1F (stereo not shown) [FRPPO-093]	1 to 5 µM
